One series has as its system Male Sprague-Dawley rats. As to the kind of experiment: Determination of serum HDL cholesterol in cholesterol/cholic acid-fed rats. The note with it: dose of 100 mg/kg mixed in diet, eight days, six rats per group, diet with 0.25% cholic acid and 1.0% cholesterol, serum HDL cholesterol by FPLC; for change in vivo at 100 mg/kg: Rattus norvegicus, feed or water, 192 h, read-out: HDL Cholesterol Level Increase (%). The format is in vivo, rat. As for the experimental part:
The ability of the compounds of this invention to increase blood serum HDL levels was evaluated by the following standard experimental procedure for determination of HDL cholesterol:
Male Sprague-Dawley rats weighing 200-225 g were housed two per cage and fed Purina Rodent Chow Special Mix 5001-S supplemented with 0.25% cholic acid and 1.0% cholesterol and water ad libitum for 8 days. Each test substance was administered to a group of six rats fed the same diet with the test diet mixed in as 0.005-0.1% of the total diet. Body weight and food consumption were recorded prior to diet administration and at termination. Typical doses of the test substances are 5-100 mg/kg/day.
At termination, blood was collected from anesthetized rats and the serum was separated by centrifugation. Total serum cholesterol was assayed using the Sigma Diagnostics enzymatic kit for the determination of cholesterol, Procedure No. 352, modified for use with ninety-six well microtiter plates. After reconstitution with water the reagent contained 300 U/l cholesterol oxidase, 100 U/l cholesterol esterase, 1000 U/l horseradish peroxidase, […] p-hydroxybenzenesulfonate in a pH 6.5 buffer. In the reaction cholesterol is oxidized to produce hydrogen peroxide which is used to form a quinoneimine dye. The concentration of dye formed is measured spectrophotometrically by absorbence at 490 nm after incubation at 25° C. for 30 minutes. The concentration of cholesterol was determined for each serum sample relative to a commercial standard from Sigma.
HDL cholesterol concentrations in serum were determined by separation of lipoprotein classes by fast protein liquid chromatography (FPLC) by a modification of the method of Kieft et al., J. Lipid Res., 32 (1991) 859-866. 25 ul of serum was injected onto Superose 12 and Superose 6 (Pharmacia), in series, with a column buffer of 0.05 M Tris (2-amino-2-hydroxymethyl-1,3-propanediol) and 0.15 M sodium chloride at a flow rate of 0.5 ml/min. The eluted sample was mixed on line with Boehringer-Mannheim cholesterol reagent pumped at 0.2 ml/min. The combined eluents were mixed and incubated on line through a knitted coil (Applied Biosciences) maintained at a temperature of 45° C. The eluent was monitored by measuring absorbance at 490 nm and gave a continuous absorbance signal proportional to the cholesterol concentration. The relative concentration of each lipoprotein class was calculated as the per cent of total absorbency. HDL cholesterol concentration, in serum, was calculated as the per cent of total cholesterol as determined by FPLC multiplied by the total serum cholesterol concentration.
Test compounds were administered at a dose of 100 mg/kg. Each test substance was administered to a group of six rats. The duration of treatment was eight days.

One may read the melting point as the temperature of the solid-liquid transition. As for `CCOC(=O)CON(C)C(=S)Nc1cc(Cl)ccc1C` [Example 1, Ethyl [[[[(5-Chloro-2-methylphenyl)amino]thioxomethyl]methylamino]oxy]acetate], the melting point is 83 to 84 °C. For the same compound, in the series with Male Sprague-Dawley rats, the change in vivo at 100 mg/kg worked out at 118%.
In the case of `CCOC(=O)CON(C)C(=S)Nc1ccc(Cl)cc1C` [Example 2, Ethyl [[[[(4-Chloro-2-methylphenyl)amino]thioxomethyl]methylamino]oxy]acetate], the melting point fell in the range of 104 to 106 °C. In addition, the change in vivo at 100 mg/kg in the series with Male Sprague-Dawley rats was determined as 62%.
`CCOC(=O)CON(C)C(=S)Nc1ccc2c(c1)CCC2` [Example 3, Ethyl [[[[(2,3-dihydro-1H-inden-5-yl)amino]thioxomethyl]methylamino]oxy]acetate] gave a melting point of 69 to 71 °C. For the same compound, in the series with Male Sprague-Dawley rats, the change in vivo at 100 mg/kg was determined as 146%.
For the compound `CCOC(=O)CON(C)C(=S)Nc1cc(C)ccc1C` [Example 5, Ethyl [[[[(2,5-dimethylphenyl)amino]thioxomethyl]methylamino]oxy]acetate], in the series with Male Sprague-Dawley rats, the change in vivo at 100 mg/kg was determined as 40%.
Consider `CCOC(=O)CON(C)C(=S)NCC(C)C` [Example 6, Ethyl [[[[(2-methylpropyl)amino]thioxomethyl]methylamino]oxy]acetate], for which the change in vivo at 100 mg/kg in the series with Male Sprague-Dawley rats is 17%.
In the case of `CCOC(=O)CON(C)C(=S)Nc1ccc(Oc2ccccc2)cc1` [Example 7, Ethyl [[[[(4-phenoxyphenyl)amino]thioxomethyl]methylamino]oxy]acetate], the change in vivo at 100 mg/kg in the series on Male Sprague-Dawley rats is 35%.
Regarding `CCOC(=O)CON(CC)C(=S)Nc1ccc(Cl)cc1C` [Example 8, Ethyl [[[[(4-Chloro-2-methylphenyl)amino]thioxomethyl]ethylamino]oxy]acetate], the melting point is 69 to 71 °C. For the same compound, the change in vivo at 100 mg/kg in the series with Male Sprague-Dawley rats was determined as 90%.
In turn, `CCOC(=O)CON(C(=S)Nc1cc(Cl)ccc1C)C(C)C` [Example 9, Ethyl [[[[(5-Chloro-2-methylphenyl)amino]thioxomethyl](1-methylethyl)amino]oxy]acetate] came in with a melting point of 83 to 85 °C. Besides, in the series on Male Sprague-Dawley rats, the change in vivo at 100 mg/kg was determined as 46%.
For `CCOC(=O)CON(C(=S)Nc1cc(Cl)ccc1C)C(C)CC` (stereo not drawn) [Example 10, Ethyl [[[[(5-Chloro-2-methylphenyl)amino]thioxomethyl](1-methylpropyl)amino]oxy]acetate], the change in vivo at 100 mg/kg in the series on Male Sprague-Dawley rats is 39%.
Consider “Ethyl [[methyl[[(2-(1-methylethyl)phenyl]amino]thioxomethyl]methylamino]oxy]acetate [Example 4]”, for which the “HDL Cholesterol Level Increase (%)” value in the series with Male Sprague-Dawley rats came to 104%.

These data come from patent publication US6472430B2, “Amino thioxomethyl amino oxyacetic acid derivatives” (priority 2000, dated 2002).
